Laboratory results from patent US10426728B2, “Synergistic liposomal formulation for the treatment of cancer” (priority 2013, dated 2019).
Counter-ions that a name gives are not always drawn.

Tests used:
rat C6 glioma cells = settings: 7 μg/ml free CPT, 2 h
Protocol: (§1) Murine melanoma cell line B16F10, colorectal adenocarcinoma SW480 cell line, human colon carcinoma HCT116 cell line, rat brain astrocytes and rat C6 glioma cell lines were maintained in Dulbecco Modified Eagle Medium (DMEM) supplemented with 10% fetal bovine serum, sodium pyruvate, 2 mM L-glutamine, penicillin, and streptomycin. Murine macrophage cell line RAW 264.7, MOLT-4 cell line (derived from human acute lymphoblastic leukemia), human leukemia cell lines K-562 and human lymphoma cell line U-937 were maintained in RPMI 1640 medium supplemented with 10% fetal bovine serum, sodium pyruvate, 2 mM L-glutamine, penicillin, and streptomycin. The cells were incubated at 37° C. in a humidified atmosphere of 5% CO2 in air (10). The Ehrlichs ascites carcinoma cells (EAC) were maintained in vivo in Swiss albino mice, by intraperitoneal (i.p.) transplantation of 2×10^6 cells/mouse every 15 days. Cells were obtained from the peritoneal fluid after 15 days, washed in 0.2M PBS and resuspended in RPMI medium supplemented with 10% FBS.
(§2) Inhibition of 3-(4, 5-dimethylthiozol-2-yl)-2, 5-diphenyltetrazolium bromide (MTT) reduction to insoluble formazan by mitochondrial dehydrogenase was used as a viability parameter for the cells and compared with untreated control. […] The reduced formazan was solubilised in DMSO and plates were analyzed by determining the A550 on Thermo [sequence]

SW480 cells = assay: MTT viability assay; assay type: cell-based, human; settings: 7 μg/ml free CPT, 2 h
Protocol: as §1, §2

U937 cells = assay type: cell-based, human; settings: 7 μg/ml free CPT, 2 h
Protocol: as §1, §2

[1] = tested on: human PBMC of healthy donors; assay type: cell-based; settings: 7 μg/ml free CPT, 2 h
Protocol: For isolation of human peripheral blood mononuclear cells from healthy donors (PBMC) heparinized human peripheral blood was obtained from healthy donors and the mononuclear cells (PBMC) were isolated by the density sedimentation on Histopaque-1077 (400×g, 30 min at RT) and washed and resuspended in RPMI 1640 supplemented with 10% FCS, 2 mM Lglutamine, penicillin (100 U/ml), and streptomycin (100 mg/ml) (30). […] Inhibition of 3-(4, 5-dimethylthiozol-2-yl)-2, 5-diphenyltetrazolium bromide (MTT) reduction to insoluble formazan by mitochondrial dehydrogenase was used as a viability parameter for the cells and compared with untreated control. After treatment with drug for 2 or 4 h the cells were washed with 20 mM PBS and incubated with 2 mg/ml MTT solution for 4 h at 37° C. The reduced formazan was solubilised in DMSO and plates were analyzed by determining the A550 on Thermo [sequence]

B16F10 cells [2] = assay: JC-1 mitochondrial membrane potential flow cytometry; assay type: cell-based, murine; settings: 7 μg/ml of free CPT, 2 h
Protocol: Supernatant was carefully removed. 0.5 ml of freshly prepared 5,5′,6,6′-tetrachloro-[…] Iodide (JC-1) working solution containing 1:100 JC-1 stain was added to each pellet. The pellets were resuspended. Cells were incubated in JC-1 working solution for 10-15 min at 37° C. in a CO2 incubator. Cells were washed twice following incubation. Cells were then analyzed by flow cytometry. (BD™ MitoScreen Flow Cytometry Mitochondrial Membrane Potential Detection Kit) (33).

B16F10 cells [3] = assay type: cell-based, murine; settings: 2 h
Protocol: Murine melanoma cell line B16F10, colorectal adenocarcinoma SW480 cell line, human colon carcinoma HCT116 cell line, rat brain astrocytes and rat C6 glioma cell lines were maintained in Dulbecco Modified Eagle Medium (DMEM) supplemented with 10% fetal bovine serum, sodium pyruvate, 2 mM L-glutamine, penicillin, and streptomycin. […] The cells were incubated at 37° C. in a humidified atmosphere of 5% CO2 in air (10).
Inhibition of 3-(4, 5-dimethylthiozol-2-yl)-2, 5-diphenyltetrazolium bromide (MTT) reduction to insoluble formazan by mitochondrial dehydrogenase was used as a viability parameter for the cells and compared with untreated control. After treatment with drug for 2 or 4 h the cells were washed with 20 mM PBS and incubated with 2 mg/ml MTT solution for 4 h at 37° C.

[4] = tested on: Ehrlichs ascites carcinoma cells (EAC); assay type: cell-based, mouse; settings: 7 μg/ml free CPT, 2 h
Protocol: as §1, §2

[5] = tested on: B16F10, K562, U937, rat C6 glioma, EAC, MOLT4 and SW480 cell lines; assay: In vitro EC50 of free anticancer drugs by MTT; assay type: cell-based; settings: free drug, 2 h treatment
Protocol: The cells were treated with PC:SA liposome (20-350 μg/ml with respect to PC) or free DOX (500-1000 μg/ml) and free CAMPTOSAR (irinotecan hydrochloride, which is a semisynthetic derivative of camptothecin) (500-10,000 μg/ml). After 2 h of treatment effects on cell viability were determined by MTT assay. EC50 values were determined by nonlinear regression analysis of concentration-response data.

EC50 [5] | Structure (SMILES) | viability (rat C6 glioma cells) | killing effect (SW480 cells) | killing effect (U937 cells) | killing effect [1] | green fluorescing monomers (JC-1) (B16F10 cells [2]) | viability (B16F10 cells [3]; 7 μg/ml free CPT) | cells survived (B16F10 cells [3]; free CPT 3.9 μg/ml (REV equivalent) and 6.1 μg/ml (DRV equivalent)) | viability [4]
– | CC[C@@]1(O)C(=O)OCc2c1cc1n(c2=O)Cc2cc3ccccc3nc2-1 [CPT, camptothecin] | 71% | no killing effect | no killing effect | no killing effect | 7% | 38% | about 38% | 56%
800 to 5000 µg/mL | CCc1c2c(nc3ccc(OC(=O)N4CCC(N5CCCCC5)CC4)cc13)-c1cc3c(c(=O)n1C2)COC(=O)[C@]3(O)CC [irinotecan hydrochloride] | – | – | – | – | – | – | – | –
